# Source: patent US20180016593A1, “HERBICIDE-RESISTANT SUNFLOWER PLANTS, POLYNUCLEOTIDES ENCODING HERBICIDE-RESISTANT ACETOHYDROXYACID SYNTHASE LARGE SUBUNIT PROTEINS, AND METHODS OF USE” (priority 2005, published 2018)
# Several values for one entry are separate records, joined by “and”; a condition that tells them apart may be missing. Equal entries are not always repeated. Where two headings read alike, the source gives them in different places.
# System: sunflower lines carrying the A122T mutation
# Type: in vivo, Helianthus annuus
# Conditions: 14 DAT; for biomass accumulation, Dif A122T-A205V / plant height, Dif A122T-A205V / root dry weight, Dif with A122T-A205V: A122T mean minus A205V mean; for biomass accumulation, Dif with Control / plant height, Dif with Control / root dry weight, Dif with Control: A122T mean; for Phytotoxicity Index, Dif A205V-A122T: A205V mean minus A122T mean; for biomass accumulation, Mean / plant height, Mean / root dry weight, Mean: six A122T genotypes
# Method: A greenhouse study was conducted to quantify and contrast the imazapir sensivity of the mutants A122T and A205V in different genetic backgrounds at the whole plant level in sunflower. Seeds of the different sunflower lines that were used in this study were obtained under field conditions.
# Seeds were sown in Petri dishes and, after germination, plantlets were transplanted to pots of 10 cm of diameter in a potting media consisting of equal parts of vermiculite, soil and sand. Plants were grown in a greenhouse under natural light conditions supplemented with 400 W sodium halide lamps to provide a 16 hrs daylength. Day/night temperatures were 25 and 20° C., respectively. At the V2 stage 10 plants of each genotype were randomly assigned to each treatment consisting of […] imazapir doses (0, 40, 80, 160, 240, 320, 400 and 480 g ai/ha), and a zero-time biomass determination. Experiment was arranged as a randomized block design with a full factorial (sunflower line×treatment) arrangement of treatments and 10 replications.
# On the day of herbicide application ten plants of each genotype were cut at the cotyledonal node and dried at 60° C. for 48 hrs zero-time for dried weight determination.
# Height was determined as the distance between the cotyledonal node and the apex of each plant. For root biomass determination, each plant was taken from the pot and the potting media was washed out from the roots. Above ground biomass data from each line were converted to biomass accumulation after application by subtracting the appropriate average zero-time biomass from each sample. Dry biomass data were converted to percentages of the untreated control plants within each line to allow direct comparisons between groups. […]
smiles,measurement,setting,value
CC(C)C1(C)N=C(c2ncccc2C(=O)O)NC1=O (stereo not shown) [imazapyr],"biomass accumulation, Dif A122T-A205V",0.5x (40 g ai/ha),4.3 % of untreated plots
same,"plant height, Dif A122T-A205V",0.5x (40 g ai/ha),4.9 % of untreated plots
same,"root dry weight, Dif with A122T-A205V",0.5x (40 g ai/ha),12.7 % of untreated plots
same,"biomass accumulation, Dif A122T-A205V",1x (80 g ai/ha),14.5 % of untreated plots
same,"plant height, Dif A122T-A205V",1x (80 g ai/ha),9.4 % of untreated plots
same,"root dry weight, Dif with A122T-A205V",1x (80 g ai/ha),26.7 % of untreated plots
same,"biomass accumulation, Dif A122T-A205V",2x (160 g ai/ha),33.2 % of untreated plots
same,"plant height, Dif A122T-A205V",2x (160 g ai/ha),28.0 % of untreated plots
same,"root dry weight, Dif with A122T-A205V",2x (160 g ai/ha),43.6 % of untreated plots
same,"biomass accumulation, Dif A122T-A205V",3x (240 g ai/ha),45.3 % of untreated plots
same,"plant height, Dif A122T-A205V",3x (240 g ai/ha),45.3 % of untreated plots
same,"root dry weight, Dif with A122T-A205V",3x (240 g ai/ha),50.2 % of untreated plots
same,"biomass accumulation, Dif A122T-A205V",4x (320 g ai/ha),52.4 % of untreated plots
same,"plant height, Dif A122T-A205V",4x (320 g ai/ha),59.9 % of untreated plots
same,"root dry weight, Dif with A122T-A205V",4x (320 g ai/ha),50.3 % of untreated plots
same,"biomass accumulation, Dif A122T-A205V",5x (400 g ai/ha),46.9 % of untreated plots
same,"plant height, Dif A122T-A205V",5x (400 g ai/ha),57.8 % of untreated plots
same,"root dry weight, Dif with A122T-A205V",5x (400 g ai/ha),47.9 % of untreated plots
same,"biomass accumulation, Dif A122T-A205V",6x (480 g ai/ha),44.6 % of untreated plots
same,"plant height, Dif A122T-A205V",6x (480 g ai/ha),54.0 % of untreated plots
same,"root dry weight, Dif with A122T-A205V",6x (480 g ai/ha),37.3 % of untreated plots
same,"biomass accumulation, Dif with Control",0.5x (40 g ai/ha),1.1 % of untreated plots
same,"plant height, Dif with Control",0.5x (40 g ai/ha),0.6 % of untreated plots
same,"root dry weight, Dif with Control",0.5x (40 g ai/ha),0.1 % of untreated plots
same,"biomass accumulation, Dif with Control",1x (80 g ai/ha),3.2 % of untreated plots
same,"plant height, Dif with Control",1x (80 g ai/ha),1.4 % of untreated plots
same,"root dry weight, Dif with Control",1x (80 g ai/ha),2.5 % of untreated plots
same,"biomass accumulation, Dif with Control",2x (160 g ai/ha),5.1 % of untreated plots
same,"plant height, Dif with Control",2x (160 g ai/ha),2.7 % of untreated plots
same,"root dry weight, Dif with Control",2x (160 g ai/ha),5.9 % of untreated plots
same,"biomass accumulation, Dif with Control",3x (240 g ai/ha),7.2 % of untreated plots
same,"plant height, Dif with Control",3x (240 g ai/ha),4.4 % of untreated plots
same,"root dry weight, Dif with Control",3x (240 g ai/ha),10.6 % of untreated plots
same,"biomass accumulation, Dif with Control",4x (320 g ai/ha),12.2 % of untreated plots
same,"plant height, Dif with Control",4x (320 g ai/ha),6.3 % of untreated plots
same,"root dry weight, Dif with Control",4x (320 g ai/ha),18.6 % of untreated plots
same,"biomass accumulation, Dif with Control",5x (400 g ai/ha),20.7 % of untreated plots
same,"plant height, Dif with Control",5x (400 g ai/ha),10.2 % of untreated plots
same,"root dry weight, Dif with Control",5x (400 g ai/ha),21.3 % of untreated plots
same,"plant height, Dif with Control",6x (480 g ai/ha),15.8 % of untreated plots
same,"root dry weight, Dif with Control",6x (480 g ai/ha),38.3 % of untreated plots
same,"biomass accumulation, Dif with Control","6x (480 g ai/ha), listed as imazapir",25 % of untreated plots and 25.4 % of untreated plots
same,"Phytotoxicity Index, Dif A205V-A122T",0.5x (40 g ai/ha),−0.29
same,"Phytotoxicity Index, Dif A205V-A122T",1x (80 g ai/ha),−0.29
same,"Phytotoxicity Index, Dif A205V-A122T",2x (160 g ai/ha),1.87
same,"Phytotoxicity Index, Dif A205V-A122T",3x (240 g ai/ha),4.81
same,"Phytotoxicity Index, Dif A205V-A122T",4x (320 g ai/ha),6.92
same,"Phytotoxicity Index, Dif A205V-A122T",5x (400 g ai/ha),7.38
same,"Phytotoxicity Index, Dif A205V-A122T",6x (480 g ai/ha),7.03
same,"biomass accumulation, Mean",0.5x (40 g ai/ha),98.9 % of untreated plots
same,"plant height, Mean",0.5x (40 g ai/ha),99.4 % of untreated plots
same,"root dry weight, Mean",0.5x (40 g ai/ha),99.9 % of untreated plots
same,"biomass accumulation, Mean",1x (80 g ai/ha),96.8 % of untreated plots
same,"plant height, Mean",1x (80 g ai/ha),98.6 % of untreated plots
same,"root dry weight, Mean",1x (80 g ai/ha),97.5 % of untreated plots
same,"biomass accumulation, Mean",2x (160 g ai/ha),94.9 % of untreated plots
same,"plant height, Mean",2x (160 g ai/ha),97.3 % of untreated plots
same,"root dry weight, Mean",2x (160 g ai/ha),94.1 % of untreated plots
same,"biomass accumulation, Mean",3x (240 g ai/ha),92.8 % of untreated plots
same,"plant height, Mean",3x (240 g ai/ha),95.6 % of untreated plots
same,"root dry weight, Mean",3x (240 g ai/ha),89.4 % of untreated plots
